From patent US20030133908A1, “Treatment for intracranial tumors” (priority 2002, published 2003)

Columns and labels:
rat microglia [1] = experiment: TNF-α production by cultured rat microglia (rat-specific TNF-α ELISA); type: cell-based; settings: in the presence of TGF-β
Method: (§1) The ability of cultured rat microglia to produce the soluble cytotoxic agents, TNF-αand nitric oxide, was examined. Rat microglia were harvested and plated in a 96-well plate at a density of 5×10^5 cells/well in 200 μl of serum-free CellGro complete medium (MediaTech, Inc.). In some wells, the medium was supplemented with different concentrations of LPS alone (from E. coli serotype […]; Sigma) while others were supplemented with a combination of LPS and recombinant rat IFN-γ (100 U/ml; R&D Systems). After 24 hours of incubation at 37° C., TNF-α protein in the supernatant of each well was quantified using a Cytoscreen rat-specific TNF-α ELISA kit (Biosource Intl., Camarillo, Calif.), and NO (nitrite) levels in the supernatant of each well were determined using the Griess reaction. All experiments were carried out in triplicate.

rat microglia [2] = experiment: Nitric oxide (nitrite) production by cultured rat microglia (Griess reaction); type: cell-based; settings: in the presence of TGF-β
Method: as §1

RG2 glioma cells = experiment: Microglia-mediated tumor cytotoxicity on co-cultured RG2 cells (modified MTT reduction assay); type: cell-based, rat; settings: L-NMA exposure
Method: Co-cultures of microglia and RG2 cells were established and cytotoxicity assays were carried out as follows: isolated rat microglial cells (5×10^5 cells/well) were added to a 96-well plate containing 200 μl/well of complete medium. After allowing the cells to adhere for one hour, the medium was aspirated and the appropriate number of RG2 cells (from 2.5×10^4 to 1×10^6 to yield effector:target [E:T] ratios from 0.5:1 to 20:1) was added to the wells in 200 μl of fresh, complete medium. As controls, glioma cells and microglia were cultured separately in other wells of the plate. Microglia-mediated tumor cytotoxicity was measured using a modified MTT reduction assay.
All experiments were performed in quadruplicate. Some co-culture experiments were carried out on glass cover slips to provide visual documentation of cytotoxicity. The cover slips were immersed in paraformaldehyde solution and then subjected to cresyl violet staining.
To determine the contributions of TNF-α and NO to the tumoricidal activity of microglia, MTT cytotoxicity assays were carried out in the presence of TNF-α binding protein (TNF-bp; an inhibitor of TNF-α) and N^G-monomethyl-L-arginine (L-NMA; an inhibitor of NO production).
The effects of TGF-β on microglial tumor cytotoxicity were also investigated in MTT cytotoxicity assays in the presence of TGF-β.

Row | Molecule | microglial production of TNF-α (rat microglia [1]) | microglial production of NO (rat microglia [2]) | killing of co-cultured RG2 by LPS/IFN-γ stimulated microglia (RG2 glioma cells)
1 | TGF-β | concurrent decreases | concurrent decreases | –
2 | CNC(=N)NCCC[C@H](N)C(=O)O [L-NMA, N^G-monomethyl-L-arginine] | – | – | significantly inhibited
